Reference: article PMC4433323, “Structural and Kinetic Characterization of Thymidine Kinase from Leishmania major” (PLoS Neglected Tropical Diseases, 2015)
Where “and” joins values, the source holds several entries; their conditions need not be identical. Equal values may be shown once. Read-outs that look alike come from different tables or passages of the source. Marks after values point to notes of the source that are not given here.

How the values were obtained:
LmTK [1] = target: T1, LmTK (Leishmania major, UniProt Q4QC75); assay: TK activity, enzyme coupled spectrophotometric assay (substrate kinetics); type: biochemical; conditions: for kcat / Vmax / Km: recombinant full-length LmTK; for Vmax / Km: 25°C, pH 7.4; for Activity measurements at 10 mM substrate concentration (Vmax) / rate of phosphorylation by LmTK, fold lower than the Vmax value exhibited by TbTK: 10 mM substrate
Procedure: (§1) TK activity was measured spectrophotometrically using an enzyme coupled assay in buffer containing 50 mM Tris-HCl pH 7.4, 5 mM MgCl2, 50 mM KCl, 1 mM DTT, 0.5 mM ATP, 0.5 mM phosphoenolpyruvate (PEP), 0.2 mM NADH, 0.2 mM thymidine (dThd), 2 U pyruvate kinase (PK), 4 U lactate dehydrogenase (LDH) and variable amounts of enzyme. The reaction rate (AU/min) was registered as a decrease in absorbance at 340nm (NADH extinction coefficient) at 25°C at pH 7.4 using a multicell Hewlett-Packard 8452 diode array UV-VIS spectrophotometer. Diluted stocks of frozen full-length LmTK were freshly prepared in assay buffer before the measurements. […]

hTK1 [2] = system: hTK1; design: method as in Munch-Peterson et al. [43]; conditions: 37°C; ref Munch-Peterson et al. [43]; cited from earlier work
LmTK [3] = target: T1, LmTK; assay: TK activity, enzyme coupled spectrophotometric assay (substrate kinetics); type: biochemical; conditions: saturating dThd (25 μM)
[4] = system: Leishmania intracellular amastigote; design: method as in PMID 20922414; conditions: cited from earlier work
LmTK [5] = target: T1, LmTK; assay: Inhibition assay of LmTK activity; type: biochemical; conditions: for IC50: 22.3 nM LmTK, pH 7.4
Procedure: TK activity was measured spectrophotometrically using an enzyme coupled assay in buffer containing 50 mM Tris-HCl pH 7.4, 5 mM MgCl2, 50 mM KCl, 1 mM DTT, 0.5 mM ATP, 0.5 mM phosphoenolpyruvate (PEP), 0.2 mM NADH, 0.2 mM thymidine (dThd), 2 U pyruvate kinase (PK), 4 U lactate dehydrogenase (LDH) and variable amounts of enzyme. The reaction rate (AU/min) was registered as a decrease in absorbance at 340nm (NADH extinction coefficient) at 25°C at pH 7.4 using a multicell Hewlett-Packard 8452 diode array UV-VIS spectrophotometer. Diluted stocks of frozen full-length LmTK were freshly prepared in assay buffer before the measurements.
The method consists in determining experimental values for the initial velocities, v, as described above, at increasing inhibitor concentrations, added before initiating the reaction. LmTK and dThd concentrations were 22.3 nM and 25 μM respectively. The concentration of inhibitor that inhibits the activity by 50% (IC50) was calculated.

hTK1 [6] = target: hTK1; design: method as in PMID 3457791; conditions: cited from earlier work
TK from rat liver = system: TK from rat liver; design: method as in PMID 4539354; conditions: similar conditions (equimolar dTTP and dThd); cited from earlier work
LmTK [7] = target: T1, LmTK; assay: Inhibition assay of LmTK activity; type: biochemical
[8] = target: the molecule itself; assay: AUC; sedimentation velocity, unliganded C-terminally His-tagged LmTK (dTTP dialysed away), 0.15 and 0.45 mg/mL, SEC buffer (10 mM Tris pH 8.0, 200 mM NaCl, 1 mM DTT), 42 000 rpm, 20°C; c(s) analysis with SEDFIT
[9] = target: the molecule itself; assay: crystal structure; LmTK-dThd (with phosphate), 1.4 M Na/K PO4 pH 5.4, 1 mM dThd, 1 mM AppNHp, 3 mM MgCl2; space group P6(5)22, 2 protomers per asymmetric unit, 2.74 Å
[10] = substrate: Cc1cn([C@H]2C[C@H](O)[C@@H](CO)O2)c(=O)[nH]c1=O; assay: TK activity, enzyme coupled spectrophotometric assay (substrate kinetics); type: biochemical, Leishmania major; conditions: other: recombinant full-length LmTK, 25°C, pH 7.4
Procedure: as §1

## O=c1[nH]c(=O)n([C@H]2C[C@H](O)[C@@H](CO)O2)cc1Br [5Br-2’dU]
LmTK [1]
  kcat: 3.47 s⁻¹
  Vmax: 6.17 ± 0.19 µmol/min/mg
LmTK [1]; read-out: KM
  Km: 2 µM and 2.05 µM

## O=c1[nH]c(=O)n([C@H]2C[C@H](O)[C@@H](CO)O2)cc1CO [5CH2OH-2’dU]
LmTK [1]
  phosphorylation by LmTK (in words): also phosphorylated
  kcat: 2.82 s⁻¹
  Vmax: 5.01 ± 1.30 µmol/min/mg
LmTK [1]; read-out: KM
  Km: 96.7 ± 23.1 µM

## O=c1[nH]c(=O)n([C@H]2C[C@H](O)[C@@H](CO)O2)cc1F [5F-2’dU]
hTK1 [2]
  Km: 2.2 µM
  Vmax: 8.99 µmol/min/mg
  kcat: 3.84 s⁻¹
LmTK [1]
  kcat: 4.66 s⁻¹
  Vmax: 8.29 ± 1.12 µmol/min/mg
LmTK [1]; read-out: KM
  Km: 5.7 µM and 5.72 µM

## C[C@H]1O[C@@H](n2cc(F)c(=O)[nH]c2=O)[C@H](O)[C@@H]1O [5F-5’dU]
LmTK [1]
  phosphorylation by LmTK (in words): is not
  Activity measurements at 10 mM substrate concentration (Vmax): 0.00 ^a μmol∙min^-1∙mg^-1

## Nc1ncnc2c1ncn2[C@@H]1O[C@H](COP(=O)(O)OP(=O)(O)OP(=O)(O)O)[C@@H](O)[C@H]1O [ATP]
LmTK [3]
  Hill coefficient (positive cooperativity): 1.6
LmTK [3]; fit to Hill equation
  K0.5: 58.6 ± 2.4 µM

## Cc1cn([C@H]2C[C@H](N=[N+]=[N-])[C@@H](CO)O2)c(=O)[nH]c1=O [AZT, 3’-azido-3’-deoxythymidine]
hTK1 [2]
  Km: 0.6 µM
  Vmax: 4.96 µmol/min/mg
  kcat: 2.12 s⁻¹
LmTK [1]
  kcat: 1.97 s⁻¹
  Km: 3 µM and 3.04 µM
  Vmax: 3.52 ± 0.56 µmol/min/mg
[4]
  Leishmania intracellular amastigote growth (in words): inhibit Leishmania intracellular amastigote growth

## Nc1ncnc2c1ncn2[C@@H]1O[C@H](CO)[C@@H](O)[C@H]1O [Ado, adenosine]
LmTK [5]; tested at 5 mM
  inhibition of LmTK: no inhibition
LmTK [1]
  Activity measurements at 10 mM substrate concentration (Vmax): 0.00 ^a μmol∙min^-1∙mg^-1

## Cc1cn([C@H]2C[C@H](O)[C@@H](COP(=O)(O)OP(=O)(O)OP(=O)(O)OP(=O)(O)OP(=O)(O)OC[C@H]3O[C@@H](n4cnc5c(N)ncnc54)[C@H](O)[C@@H]3O)O2)c(=O)[nH]c1=O [Ap5dT, P1-(5-adenosyl)-P5-(5-thymidyl) pentaphosphate]
hTK1 [6]
  Ki: 0.12 µM
LmTK [5]; 25 μM dThd, 0.5 mM ATP
  IC50: 1.1 µM

## Nc1ccn([C@@H]2O[C@H](CO)[C@@H](O)[C@H]2O)c(=O)n1 [Cyd]
LmTK [1]
  Activity measurements at 10 mM substrate concentration (Vmax): 0.00 ^a μmol∙min^-1∙mg^-1

## Nc1nc2c(ncn2[C@@H]2O[C@H](CO)[C@@H](O)[C@H]2O)c(=O)[nH]1 [Guo]
LmTK [1]
  Activity measurements at 10 mM substrate concentration (Vmax): 0.00 ^a μmol∙min^-1∙mg^-1

## O=c1ccn([C@@H]2O[C@H](CO)[C@@H](O)[C@H]2O)c(=O)[nH]1 [Urd]
LmTK [1]
  kcat: 0.44 s⁻¹
  Vmax: 0.79 ± 0.12 µmol/min/mg
LmTK [1]; read-out: KM
  Km: 1460 ± 158 µM

## Nc1ncnc2c1ncn2C1CC(O)C(CO)O1 (stereo not drawn) [dAdo]
LmTK [1]
  Activity measurements at 10 mM substrate concentration (Vmax): 0.01 ^a μmol∙min^-1∙mg^-1
  rate of phosphorylation by LmTK, fold lower than the Vmax value exhibited by TbTK: 6 fold

## Nc1ccn([C@H]2C[C@H](O)[C@@H](COP(=O)(O)OP(=O)(O)OP(=O)(O)O)O2)c(=O)n1 [dCTP]
LmTK [5]; 25 μM dThd, 0.5 mM ATP
  IC50: 1250 µM

## Nc1ccn([C@H]2C[C@H](O)[C@@H](CO)O2)c(=O)n1 [dCyd]
LmTK [1]
  Activity measurements at 10 mM substrate concentration (Vmax): 0.07 ^a μmol∙min^-1∙mg^-1

## Nc1nc2c(ncn2[C@H]2C[C@H](O)[C@@H](COP(=O)(O)OP(=O)(O)OP(=O)(O)O)O2)c(=O)[nH]1 [dGTP]
LmTK [5]; 25 μM dThd, 0.5 mM ATP
  IC50: 549 µM

## Nc1nc2c(ncn2[C@H]2C[C@H](O)[C@@H](CO)O2)c(=O)[nH]1 [dGuo]
LmTK [1]
  Activity measurements at 10 mM substrate concentration (Vmax): 0.04 ^a μmol∙min^-1∙mg^-1
  rate of phosphorylation by LmTK, fold lower than the Vmax value exhibited by TbTK: 10 fold

## O=c1[nH]cnc2c1ncn2[C@H]1C[C@H](O)[C@@H](CO)O1 [dIno]
LmTK [1]
  Activity measurements at 10 mM substrate concentration (Vmax): 0.04 ^a μmol∙min^-1∙mg^-1
  rate of phosphorylation by LmTK, fold lower than the Vmax value exhibited by TbTK: 23 fold

## Cc1cn([C@H]2C[C@H](O)[C@@H](COP(=O)(O)O)O2)c(=O)[nH]c1=O [dTMP, thymidine monophosphate]
LmTK [5]; 25 μM dThd, 0.5 mM ATP
  IC50: 165 µM

## Cc1cn([C@H]2C[C@H](O)[C@@H](COP(=O)(O)OP(=O)(O)OP(=O)(O)O)O2)c(=O)[nH]c1=O [dTTP, 2'-deoxythymidine triphosphate]
TK from rat liver
  inhibition: 87%
LmTK [7]; 3.5 μM dTTP, ATP 50–500 μM, 25 μM dThd
  fold increase in the K0.5 value for ATP compared to absence of dTTP: 5 fold
LmTK [7]; 0.2 mM dTTP, equimolar 0.2 mM dThd, 0.5 mM ATP
  enzyme inhibition: 98%
LmTK [5]; 25 μM dThd, 0.5 mM ATP
  Hill coefficient (h) of inhibition: 1.6
  IC50: 3.8 ± 0.07 µM

## Cc1cn([C@H]2C[C@H](O)[C@@H](CO)O2)c(=O)[nH]c1=O [dThd, 2’-deoxythymidine]
LmTK [1]; comparison with TbTK ref 35
  KM fold lower than that reported for TbTK: ~ 7 fold

## O=c1ccn([C@H]2C[C@H](O)[C@@H](COP(=O)(O)OP(=O)(O)OP(=O)(O)O)O2)c(=O)[nH]1 [dUTP]
LmTK [5]; 25 μM dThd, 0.5 mM ATP
  IC50: 187 µM

## O=c1ccn([C@H]2C[C@H](O)[C@@H](CO)O2)c(=O)[nH]1 [dUrd]
hTK1 [2]
  Km: 9 µM
  Vmax: 11.87 µmol/min/mg
  kcat: 5.07 s⁻¹
LmTK [1]
  KM fold higher than that for dThd: approximately 10 fold
  kcat: 3.06 s⁻¹
  Vmax: 5.45 ± 0.77 µmol/min/mg
LmTK [1]; read-out: KM
  Km: 11.1 ± 2.7 µM

B1: C-terminally His-tagged truncated L. major thymidine kinase (LmTK), amino acids 2-185 (enzyme, L. major strain Friedlin, UniProt Q4QC75 2-185, looked up)
chain: FRGRIELIIGPMFAGKTTELMRRVKREIHARRSCFVIKYSKDTRYDEHNVASHDQLMLRAQAAVSQLTEVRDTWKRFDVLAIDEGQFFSDLVDFCNTAADAGKVVMVSALDGDYRRKPFGQICELVPYCEAVDKLTAVCMMCHEQPACFTRRTVNVEQQELIGGADMYIATCRECYSKQQLPSI
notes: Thymidine kinase of Leishmania major strain Friedlin (GeneDB LmjF.21.1210), C-terminally truncated version spanning amino acids 2-185; Non-cleavable C-terminal His tag; Stabilised with dTTP/MgCl2 or dThd/AppNHp/MgCl2; also called C-terminal histagged LmTK; LmTK-dTTP; source: Sf9 insect cells (baculovirus), purified (HisTrap, Superdex 200 SEC); not shown: His6, C-terminal, kept
[8]
  stoichiometry N: 4

B2: Truncated L. major thymidine kinase (LmTK), amino acids 2-185, as crystallised with dThd/AppNHp and with AP5dT (enzyme, L. major strain Friedlin, UniProt Q4QC75 2-185, looked up)
chain: FRGRIELIIGPMFAGKTTELMRRVKREIHARRSCFVIKYSKDTRYDEHNVASHDQLMLRAQAAVSQLTEVRDTWKRFDVLAIDEGQFFSDLVDFCNTAADAGKVVMVSALDGDYRRKPFGQICELVPYCEAVDKLTAVCMMCHEQPACFTRRTVNVEQQELIGGADMYIATCRECYSKQQLPSI
notes: Thymidine kinase of Leishmania major strain Friedlin (GeneDB LmjF.21.1210), C-terminally truncated version spanning amino acids 2-185; both preparations (each with dThd, AppNHp, MgCl2) were used for crystallization screening; also called LmTK-dThd; LmTK-dThd-AppNHp; source: Sf9 insect cells (baculovirus), purified (HisTrap, Superdex 200 SEC)
[9]
  stoichiometry N: 4

B3: LmTK (Leishmania major) (protein)
chain: FRGRIELIIGPMFAGKTTELMRRVKREIHARRSCFVIKYSKDTRYDEHNVASHDQLMLRAQAAVSQLTEVRDTWKRFDVLAIDEGQFFSDLVDFCNTAADAGKVVMVSALDGDYRRKPFGQICELVPYCEAVDKLTAVCMMCHEQPACFTRRTVNVEQQELIGGADMYIATCRECYSKQQLPSIEEMRTQRMAIKEVEKRYLGLSDKRATASPQTPEKPAGGWCTKAGVATLPTMVKEGAASSGASAGMKSGRGLCEMQAFTTETPKYQRVEPACTASAASSE
[10]
  Km: 1.10 ± 0.33 µM
  Vmax: 4.66 µmol/min/mg
  kcat: 2.62 s⁻¹
  kcat/Km: 2.38e+06 M⁻¹ s⁻¹
